The values that follow are results of earlier work, collected in patent US20150150789A1, “ANTIMICROBIAL COMPOSITIONS AND METHODS FOR PREVENTING INFECTION IN SURGICAL INCISION SITES” (TYRX, Inc., priority 2013, published 2015).

For this data set the following is noted: for solubility in organic solvents: alcohols, ketones, ethers, aldehydes, acetonitrile, acetic acid, methylene chloride, chloroform (novobiocin sodium: alcohol).

On to `Oc1c(Cl)cc(Cl)c(Cl)c1Cc1c(O)c(Cl)cc(Cl)c1Cl` [Hexachlorophene], for which the “solubility in organic solvents” value is recorded as “soluble” and the solubility in water result is recorded as “soluble”.

As to `CC[C@H]1OC(=O)[C@H](C)[C@@H](O[C@H]2C[C@@](C)(OC)[C@@H](O)[C@H](C)O2)[C@H](C)[C@@H](O[C@@H]2O[C@H](C)C[C@H](N(C)C)[C@H]2O)[C@](C)(O)C[C@@H](C)C(=O)[C@H](C)[C@@H](O)[C@]1(C)O` [Erythromycin], the “solubility in organic solvents” value was “soluble” and the solubility in water entry was “slightly soluble”.

As to `CCOc1ccc2ccccc2c1C(=O)N[C@@H]1C(=O)N2[C@@H]1SC(C)(C)[C@@H]2C(=O)O` [Nafcillin], the “solubility in organic solvents” value was “readily soluble” and the solubility in water entry is “readily soluble”.

As for `CO[C@@H]1[C@@H](OC(N)=O)[C@@H](O)[C@H](Oc2ccc3c(O)c(NC(=O)c4ccc(O)c(CC=C(C)C)c4)c(=O)oc3c2C)OC1(C)C` [Novobiocin sodium], the “solubility in organic solvents” value is “freely soluble” and the solubility in water result is on record as “freely soluble”.

For the molecule `CO[C@H]1/C=C/O[C@@]2(C)Oc3c(C)c(O)c4c(O)c(c(/C=N/N5CCN(C)CC5)c(O)c4c3C2=O)NC(=O)/C(C)=C\C=C\[C@H](C)[C@H](O)[C@@H](C)[C@@H](O)[C@@H](C)[C@H](OC(C)=O)[C@@H]1C` [Rifampin, rifampin], the “solubility in organic solvents” value is given as “freely soluble” and the solubility in water entry was “very slightly soluble”. Moreover, under “acidic aqueous solutions”, the “solubility in acidic aqueous solutions” value was “freely soluble”.
